Test results reported in the CATMoS acute toxicity set (Mansouri et al. 2021).

Assay: GHS categories as the set defines them, by LD50: 1 up to 5, 2 up to 50, 3 up to 300, 4 up to 2000, 5 above 2000 mg/kg
Conditions: rat; in vivo; po

| SMILES | GHS category |
| --- | --- |
| Cc1ccc(Cl)cc1N=Nc1c(O)c(C(=O)Nc2cc(C)c(NC(=O)c3cc4ccccc4c(N=Nc4cc(Cl)ccc4C)c3O)cc2C)cc2ccccc12 | 5 |
| O=Cc1c(O)ccc2ccccc12 | 5 |
| COC(=O)c1ccc2cc(C(=O)OC)ccc2c1 | 5 |
| CC1=C(C(=O)O)N2C(=O)[C@@H](NC(=O)C(N)C3=CCC=CC3)[C@H]2SC1 (stereo partly drawn) | 5 |
| CCc1cc(Cc2cc(CC)cc(C(C)(C)C)c2O)c(O)c(C(C)(C)C)c1 | 5 |
| CCN(Cc1cccc(S(=O)(=O)O)c1)c1ccc(C(=C2C=CC(=[N+](CC)Cc3cccc(S(=O)(=O)O)c3)C=C2)c2ccc(O)cc2S(=O)(=O)[O-])cc1 | 5 |
| CC(=O)OC1CN(C)C(=O)N1c1cc(C(C)(C)C)on1 (stereo not drawn) | 4 |
| CO/C=C(/C(=O)OC)c1ccccc1Oc1cc(Oc2ccccc2C#N)ncn1 | 5 |
| COCCOC(=O)C(=O)Nc1nc(-c2ccccc2)cs1 | 5 |
| Nc1ccc(F)cc1-c1ccc(Cl)c(Cl)c1 | 5 |
| Cc1ccc(C(=O)COc2c(C(=O)c3ccc(Cl)c(C)c3Cl)c(C)nn2C)cc1 | 5 |
| CCCCCCC(C)C=O (stereo not drawn) | 5 |
| CCO[Si](CN1CCOCC1)(OCC)OCC | 5 |
| O=c1[nH]cnc2c1ncn2[C@H]1CC[C@@H](CO)O1 | 5 |
| Clc1ccc(C(Cn2ccnc2)OCc2ccc(Sc3ccccc3)cc2)c(Cl)c1 (stereo not drawn) | 5 |
| CC(=O)COc1nn(-c2cccc(C(F)(F)F)c2)c2ncccc12 | 4 |
| CC(SCC(=O)O)c1ccc2c(c1)Cc1ccccc1-2 (stereo not drawn) | 4 |
| CCCCNC1CC(C)(C)NC(C)(C)C1 | 4 |
| c1ccc(C2c3ccccc3CCN2c2ccccc2)cc1 (stereo not drawn) | 4 |
| COc1cc(OC)nc(NC(=O)NS(=O)(=O)Nc2ccccc2C(=O)N(C)C)n1 | 5 |
| Cc1cc(C)c(O)c(-c2cc(C)cc(C)c2O)c1 | 5 |
| COc1ccc(C(=O)Nc2ccccc2)cc1N=Nc1c(O)c(C(=O)Nc2cc(Cl)ccc2OC)cc2ccccc12 | 5 |
| CC(C)=CC(C)(C)CC(C)(C)C | 5 |
| O=C(O)CCCCCCCCCCNS(=O)(=O)c1ccc(Cl)cc1C(=O)c1ccccc1 | 4 |
| COCCOCOCCOC | 5 |
| CN[C@@H]1[C@@H](O)[C@@H](O[C@@H]2[C@@H](O)[C@H](O[C@H]3O[C@H](CN)[C@@H](O)[C@H](O)[C@H]3O)[C@@H](N)C[C@H]2NC(=O)C(O)CN)OC[C@]1(C)O (stereo partly drawn) | 5 |

| SMILES | GHS category |
| --- | --- |
| CCCc1c(Cc2ccc(-c3ccccc3-c3nn[nH]n3)cc2)c(N2CCCCC2)nc2ncnn12 | 4 |
| CCCc1c(Cc2ccc(-c3ccccc3-c3nn[nH]n3)cc2)c(NCCN2CCOCC2)nc2ncnn12 | 4 |
| O=C(OOC(=O)c1ccc(Cl)cc1Cl)c1ccc(Cl)cc1Cl | 5 |
| CC/C=C\CC(C)OC(=O)c1ccccc1O (stereo not drawn) | 5 |
| CCCCOC(=O)C=Cc1ccccc1 | 5 |
| CCCCCCCCCCCCCCCCCC(=O)OC[C@@H](OC(=O)CCCCCCCCCCCCCCCCC)[C@H]1OC[C@H](O)[C@H]1OC(=O)CCCCCCCCCCCCCCCCC | 5 |
| CC1(C)[C@H](C(=O)O[C@H](C#N)c2cccc(Oc3ccccc3)c2)[C@@H]1/C=C\C(=O)OC(C(F)(F)F)C(F)(F)F | 5 |
| CC(C)c1cc(C(C)C)cc(C(C)C)c1 | 5 |
| Cc1cccc2ncc(C(=O)NC(C)C)c(=O)n12 | 3 |
| O=C1C2C3CC(C(Br)C3Br)C2C(=O)N1CCN1C(=O)C2C3CC(C(Br)C3Br)C2C1=O (stereo not drawn) | 5 |
| C[Si](C)(C)[Si](C)(C)C | 5 |
| O=C(O)C(O)C(O)C(O)C(O)C(O)CO (stereo not drawn) | 5 |
| Cc1cc(C(C)(C)C)c(O)c(C)c1Cn1c(=O)n(Cc2c(C)cc(C(C)(C)C)c(O)c2C)c(=O)n(Cc2c(C)cc(C(C)(C)C)c(O)c2C)c1=O | 5 |
| O=S(=O)(O)OC1C(OS(=O)(=O)O)C(OS(=O)(=O)O)C(OS(=O)(=O)O)C(OS(=O)(=O)O)C1OS(=O)(=O)O (stereo not drawn) | 5 |
| Cc1[nH]n(-c2ccccc2)c(=O)c1N=Nc1ccc(-c2ccc(N=Nc3c(C)[nH]n(-c4ccccc4)c3=O)c(Cl)c2)cc1Cl | 5 |
| COc1cccc(N(C)C(=S)Oc2cccc(C(C)(C)C)c2)n1 | 5 |
| CCC(C)(NC(=O)c1cc(Cl)c(C)c(Cl)c1)C(=O)CCl (stereo not drawn) | 5 |
| Cc1cc2cccnc2n(-c2cccc(C(F)(F)F)c2)c1=O | 3 |
| CCCC/C=C\CCCCCCCCCC=O | 5 |
| CN1CC(CO)CC2c3cccc4c3c(cn4C(C)(C)C)CC21 (stereo not drawn) | 4 |
| CNC(=O)C(=NNc1ccc(OC)cc1)C(C)=O | 5 |
| CC(=O)OCC1=C(C(=O)O)N2C(=O)[C@@H](N)[C@H]2SC1 | 5 |
| CCCCC(CC)COC(=O)C1CCC(C(=O)OCC(CC)CCCC)CC1 (stereo not drawn) | 5 |
| CCCCCCCCCCCCCCC | 5 |
| CC(C)=CC/C(C)=C/COC(=O)c1ccccc1 | 5 |
| CC/C(=C(/c1ccc(OCCN(C)C)cc1)c1cccc(O)c1)c1ccccc1 | 5 |

| SMILES | GHS category |
| --- | --- |
| CC(=O)Nc1cc(NS(=O)(=O)C(F)(F)F)c(C)cc1C | 5 |
| CCCc1nc2ccnn2c(N)c1Cc1ccc(-c2ccccc2-c2nn[nH]n2)cc1 | 4 |
| CC(=O)Nc1c(I)c(NC(C)=O)c(I)c(C(=O)O)c1I | 5 |
| C[C@@H]1C[C@H]2[C@@H]3CCC4=CC(=O)C=C[C@]4(C)[C@@]3(F)[C@@H](O)C[C@]2(C)[C@@]1(O)C(=O)CO | 5 |
| CCCCCCCCC(C)C(C)CCCCCCCC (stereo not drawn) | 5 |
| O=S1OCC(CCl)O1 (stereo not drawn) | 2 |
| O=C1c2c(Cl)c(Cl)c(Cl)c(Cl)c2C2=Nc3cccc4cccc(c34)N12 | 5 |
| O=C(O)[C@H]1O[C@@H](O)[C@@H](O)[C@@H](O)[C@@H]1O | 5 |
| CC(C)=CCCC(C)=C1CC=C(C)CC1 | 5 |
| CC(C)(C)C1CCC(CC2=C(O)C(=O)c3ccccc3C2=O)CC1 (stereo not drawn) | 5 |
| O=C(c1ccc(Cl)cc1)n1ccnc1-c1ccccc1 | 4 |
| Cc1nc(N2CCOCC2)sc1C(=O)Nc1ccccc1 | 4 |
| CC1(C)Oc2cc(C(=O)c3ccc(Cl)cc3)ccc2NC1=O | 5 |
| CO[Si](CC(C)CC(C)(C)C)(OC)OC (stereo not drawn) | 5 |
| O=S(=O)(O)c1cc(O)ccc1O | 5 |
| COC(=O)CC(N)=S | 4 |
| CC(=O)Nc1c(I)c(C(=O)N[C@H]2C(O)O[C@H](CO)[C@@H](O)[C@@H]2O)c(I)c(N(C)C(C)=O)c1I (stereo partly drawn) | 5 |
| CCN(CC)c1ccc(C=NN(c2ccccc2)c2ccccc2)cc1 | 5 |
| COc1n[nH]c(=O)n1C | 5 |
| O=S(=O)(O)Oc1ccc(C(c2ccc(O)cc2)c2ccccn2)cc1 (stereo not drawn) | 5 |
| Cc1ccc(OP(=O)(Oc2ccccc2)Oc2ccccc2)cc1 | 5 |
| NC(=S)NS(=O)(=O)c1ccc(N)cc1 | 5 |
| C=CC(=O)OCC1(CC)COCOC1 | 5 |
| CCOC(=O)C(=O)Nc1ccncn1 | 4 |
| C=CC1=C(C(=O)O)N2C(=O)[C@@H](NC(=O)C(=NOCC(=O)O)c3csc(N)n3)[C@H]2SC1 | 5 |
| CCCCCCCC/C=C\CCCCCCCC(=O)OCC(COC(=O)CCCCCCC/C=C\CCCCCCCC)OC(=O)CCCCCCC/C=C\CCCCCCCC | 5 |
